Measured values from patent US20200360352A1, “USE OF RIFAMYCIN-NITROIMIDAZOLE COUPLING MOLECULE” (priority 2019, published 2020).
Converted amounts (≈) assume the structure as drawn. Read-outs that look alike come from different tables or passages of the source.

What was measured:
Assay type in all cases: cell-based
[1] = test system: Mycobacterium avium; test: MIC, micro broth dilution with resazurin readout; conditions: read-out: Minimum Inhibitory Concentration (MIC)
[2] = test system: Mycobacterium kansasii; test: MIC, micro broth dilution with resazurin readout; conditions: read-out: Minimum Inhibitory Concentration (MIC)
[3] = test system: Mycobacterium intracellulare; test: MIC, micro broth dilution with resazurin readout; conditions: MH Culture Medium, read-out: Minimum Inhibitory Concentration (MIC)
[4] = test system: Mycobacterium massiliense; test: MIC, micro broth dilution with resazurin readout; conditions: Mycobacteroides abscessus, MH Culture Medium, read-out: Minimum Inhibitory Concentration (MIC)
[5] = test system: Mycobacterium fortuitum; test: MIC, micro broth dilution with resazurin readout; conditions: Mycolicibacterium fortuitum, MH Culture Medium, read-out: Minimum Inhibitory Concentration (MIC)
[6] = test system: Mycodacterium chelonei; test: MIC, micro broth dilution with resazurin readout; conditions: MH Culture Medium; Chelonei (standard strain); read-out: Minimum Inhibitory Concentration (MIC)
[7] = test system: Mycobacterium abscessus; test: MIC, micro broth dilution with resazurin readout; conditions: Mycobacteroides abscessus, read-out: Minimum Inhibitory Concentration (MIC)
[8] = test system: Mycobacterium avium; test: MBC, plating of MIC wells and CFU count; conditions: Mycobacterium avium Smooth, read-out: Minimum Bactericidal Concentration (MBC)
[9] = test system: Mycobacterium abscessus; test: MBC, plating of MIC wells and CFU count; conditions: Mycobacteroides abscessus, read-out: Minimum Bactericidal Concentration (MBC)
[10] = test system: Mycobacterium kansasii; test: MBC, plating of MIC wells and CFU count; conditions: read-out: Minimum Bactericidal Concentration (MBC)
[11] = MH Culture Medium, Avium (standard strain)
[12] = MH Culture Medium, clinically isolated strain Avium (S31)
[13] = MH Culture Medium, clinically isolated strain Avium (S123)
[14] = MH Culture Medium, clinically isolated strain Avium (S559)
[15] = MH Culture Medium, clinically isolated strain Avium (S568)
[16] = MH Culture Medium, clinically isolated strain Avium (S577)
[17] = MH Culture Medium, clinically isolated strain Avium (S597)
[18] = MH Culture Medium, clinically isolated strain Avium (S602)
[19] = MH Culture Medium, Kansasii (standard strain)
[20] = MH Culture Medium, clinically isolated strain Kansasii (S9)
[21] = MH Culture Medium, clinically isolated strain Kansasii (S199)
[22] = MH Culture Medium, clinically isolated strain Kansasii (S520)
[23] = MH Culture Medium, clinically isolated strain Kansasii (S609)
[24] = Intracellulare (standard strain)
[25] = clinically isolated strain Intracellulare (S90)
[26] = clinically isolated strain Intracellulare (S261)
[27] = clinically isolated strain Intracellulare (S269)
[28] = clinically isolated strain Intracellulare (S290)
[29] = clinically isolated strain Intracellulare (S291)
[30] = clinically isolated strain Intracellulare (S298)
[31] = clinically isolated strain Intracellulare (S442)
[32] = clinically isolated strain Intracellulare (S541)
[33] = clinically isolated strain Intracellulare (S623)
[34] = clinically isolated strain Intracellulare (ZPS)
[35] = clinically isolated strain Massiliense (D10)
[36] = clinically isolated strain Massiliense (D14)
[37] = clinically isolated strain Massiliense (D18)
[38] = clinically isolated strain Fortuitum (S103)
[39] = clinically isolated strain Fortuitum (S111)

`CO[C@H]1/C=C/O[C@@]2(C)Oc3c(C)c(O)c4c(c3C2=O)C2=NC3(CCN(CC(C)C)CC3)NC2=C(NC(=O)/C(C)=C\C=C\[C@H](C)[C@H](O)[C@@H](C)[C@@H](O)[C@@H](C)[C@H](OC(C)=O)[C@@H]1C)C4=O` [Rifabutin] gave an MIC [1, 11] of 0.0625 µg/mL (≈ 0.0738 µM), an MIC [1, 12] of 0.0625 µg/mL (≈ 0.0738 µM) and an MIC [1, 13] of 0.0625 µg/mL (≈ 0.0738 µM). The MIC [1, 14] was 0.0625 µg/mL (≈ 0.0738 µM), the MIC [1, 15] was 0.0625 µg/mL (≈ 0.0738 µM) and the MIC [1, 16] was 0.0625 µg/mL (≈ 0.0738 µM). It also gave an MIC [1, 17] of 0.0625 µg/mL (≈ 0.0738 µM), an MIC [1, 18] of 0.0625 µg/mL (≈ 0.0738 µM) and an MIC [2, 19] of 0.0625 µg/mL (≈ 0.0738 µM). For the same compound, the MIC [2, 20] was 0.0625 µg/mL (≈ 0.0738 µM), the MIC [2, 21] was 0.0625 µg/mL (≈ 0.0738 µM) and the MIC [2, 22] was 0.0625 µg/mL (≈ 0.0738 µM). For the same compound, the MIC [2, 23] was 0.0625 µg/mL (≈ 0.0738 µM), the MIC [3, 24] was 0.0625 µg/mL (≈ 0.0738 µM) and the MIC [3, 25] was 0.125 µg/mL (≈ 0.148 µM). It also gave an MIC [3, 26] of 0.25 µg/mL (≈ 0.295 µM), an MIC [3, 27] of 0.0625 µg/mL (≈ 0.0738 µM) and an MIC [3, 28] of 0.0625 µg/mL (≈ 0.0738 µM). The MIC [3, 29] was 0.0625 µg/mL (≈ 0.0738 µM), the MIC [3, 30] was 0.5 µg/mL (≈ 0.59 µM) and the MIC [3, 31] was 0.0625 µg/mL (≈ 0.0738 µM). It also gave an MIC [3, 32] of 0.125 µg/mL (≈ 0.148 µM), an MIC [3, 33] of 0.25 µg/mL (≈ 0.295 µM) and an MIC [3, 34] of 0.0625 µg/mL (≈ 0.0738 µM). It also gave an MIC [4, 35] of over 64 µg/mL, an MIC [4, 36] of 64 µg/mL (≈ 75.6 µM) and an MIC [4, 37] of 64 µg/mL (≈ 75.6 µM). It also gave an MIC ([5]; Fortuitum (standard strain)) of 4 µg/mL (≈ 4.72 µM), an MIC [5, 38] of 32 µg/mL (≈ 37.8 µM) and an MIC [5, 39] of 4 µg/mL (≈ 4.72 µM). It also gave an MIC [6] of 64 µg/mL (≈ 75.6 µM).

`COc1c(N2C[C@@H]3CCCN[C@@H]3C2)c(F)cc2c(=O)c(C(=O)O)cn(C3CC3)c12` [Moxifloxacin] was tested, and the MIC [1, 11] was 1 µg/mL (≈ 2.49 µM), the MIC [1, 12] was 8 µg/mL (≈ 19.9 µM) and the MIC [1, 13] was 0.5 µg/mL (≈ 1.25 µM). For the same compound, the MIC [1, 14] was 1 µg/mL (≈ 2.49 µM), the MIC [1, 15] was 0.5 µg/mL (≈ 1.25 µM) and the MIC [1, 16] was 0.5 µg/mL (≈ 1.25 µM). For the same compound, the MIC [1, 17] was 2 µg/mL (≈ 4.98 µM), the MIC [1, 18] was 4 µg/mL (≈ 9.96 µM) and the MIC [2, 19] was 0.0625 µg/mL (≈ 0.156 µM). It also gave an MIC [2, 20] of 0.0625 µg/mL (≈ 0.156 µM), an MIC [2, 21] of 0.0625 µg/mL (≈ 0.156 µM) and an MIC [2, 22] of 0.0625 µg/mL (≈ 0.156 µM). For the same compound, the MIC [2, 23] was 0.0625 µg/mL (≈ 0.156 µM), the MIC [3, 24] was 0.25 µg/mL (≈ 0.623 µM) and the MIC [3, 25] was 2 µg/mL (≈ 4.98 µM). For the same compound, the MIC [3, 26] was 2 µg/mL (≈ 4.98 µM), the MIC [3, 27] was 2 µg/mL (≈ 4.98 µM) and the MIC [3, 28] was 2 µg/mL (≈ 4.98 µM). For the same compound, the MIC [3, 29] was 1 µg/mL (≈ 2.49 µM), the MIC [3, 30] was 2 µg/mL (≈ 4.98 µM) and the MIC [3, 31] was 2 µg/mL (≈ 4.98 µM). It also gave an MIC [3, 32] of 64 µg/mL (≈ 159 µM), an MIC [3, 33] of 2 µg/mL (≈ 4.98 µM) and an MIC [3, 34] of 1 µg/mL (≈ 2.49 µM). It also gave an MIC [4, 35] of 32 µg/mL (≈ 79.7 µM), an MIC [4, 36] of 32 µg/mL (≈ 79.7 µM) and an MIC [4, 37] of 8 µg/mL (≈ 19.9 µM). For the same compound, the MIC ([5]; Fortuitum (standard strain)) was 1 µg/mL (≈ 2.49 µM), the MIC [5, 38] was 1 µg/mL (≈ 2.49 µM) and the MIC [5, 39] was 0.5 µg/mL (≈ 1.25 µM). The MIC [6] was 4 µg/mL (≈ 9.96 µM).

`Cc1ncc([N+](=O)[O-])n1CCO` [Metronidazole] showed an MIC ([1]; 7H9 Broth, Mycobacterium avium Smooth) of over 64 µg/mL, an MIC ([1]; MH Broth, Mycobacterium avium Smooth) of over 64 µg/mL and an MIC [1, 11] of 8 µg/mL (≈ 46.7 µM). The MIC [1, 12] was 16 µg/mL (≈ 93.5 µM), the MIC [1, 13] was 8 µg/mL (≈ 46.7 µM) and the MIC [1, 14] was 8 µg/mL (≈ 46.7 µM). It also gave an MIC [1, 15] of 8 µg/mL (≈ 46.7 µM), an MIC [1, 16] of 8 µg/mL (≈ 46.7 µM) and an MIC [1, 17] of 8 µg/mL (≈ 46.7 µM). It also gave an MIC [1, 18] of 32 µg/mL (≈ 187 µM), an MIC ([7]; 7H9 Broth) of over 64 µg/mL and an MIC ([7]; MH Broth) of over 64 µg/mL. It also gave an MIC ([2]; 7H9 Broth) of over 64 µg/mL, an MIC ([2]; MH Broth) of over 64 µg/mL and an MIC [2, 19] of 8 µg/mL (≈ 46.7 µM). For the same compound, the MIC [2, 20] was 8 µg/mL (≈ 46.7 µM), the MIC [2, 21] was 8 µg/mL (≈ 46.7 µM) and the MIC [2, 22] was 8 µg/mL (≈ 46.7 µM). For the same compound, the MIC [2, 23] was 8 µg/mL (≈ 46.7 µM), the MIC [3, 24] was 8 µg/mL (≈ 46.7 µM) and the MIC [3, 25] was 16 µg/mL (≈ 93.5 µM). For the same compound, the MIC [3, 26] was 16 µg/mL (≈ 93.5 µM), the MIC [3, 27] was 16 µg/mL (≈ 93.5 µM) and the MIC [3, 28] was 8 µg/mL (≈ 46.7 µM). It also gave an MIC [3, 29] of 8 µg/mL (≈ 46.7 µM), an MIC [3, 30] of 16 µg/mL (≈ 93.5 µM) and an MIC [3, 31] of 8 µg/mL (≈ 46.7 µM). It also gave an MIC [3, 32] of 16 µg/mL (≈ 93.5 µM), an MIC [3, 33] of 8 µg/mL (≈ 46.7 µM) and an MIC [3, 34] of 8 µg/mL (≈ 46.7 µM). It also gave an MIC [4, 35] of 16 µg/mL (≈ 93.5 µM), an MIC [4, 36] of 16 µg/mL (≈ 93.5 µM) and an MIC [4, 37] of 8 µg/mL (≈ 46.7 µM). For the same compound, the MIC ([5]; Fortuitum (standard strain)) was 16 µg/mL (≈ 93.5 µM), the MIC [5, 38] was 8 µg/mL (≈ 46.7 µM) and the MIC [5, 39] was 16 µg/mL (≈ 93.5 µM). It also gave an MIC [6] of 16 µg/mL (≈ 93.5 µM), an MBC ([8]; 7H9 Broth) of over 64 µg/mL and an MBC ([8]; MH Broth) of over 64 µg/mL. The MBC ([9]; 7H9 Broth) was over 64 µg/mL, the MBC ([9]; MH Broth) was over 64 µg/mL and the MBC ([10]; 7H9 Broth) was over 64 µg/mL. The MBC ([10]; MH Broth) was over 64 µg/mL.
